According to patent US20240209053A1 (Protagonist Therapeutics, Inc., priority 2021, published 2024):
Numbered stars: 1 amine (or outer) side, 2 acyl side, 3 side chain; on linkers, the order of the positions; unused ones are H or OH. Bridge positions count the residues as written; N and C are the ends. Square brackets hold non-standard residues; d marks the D form. Side chains are listed from the residue outwards. Peptide text beside a SMILES is read from it. * marks the point of attachment. Dip = N[C@H](C(=O)O)C(c1ccccc1)c1ccccc1; Hag = O=C([C@H](CCC=[*:3])N[*:1])[*:2]; Palmitoyl = CCCCCCCCCCCCCCCC(=O)*; β3hF = N[C@H](CC(=O)O)Cc1ccccc1; NMeL = CN[C@@H](CC(C)C)C(=O)O; Isovaleryl = CC(C)CC(=O)*; Ahx = NCCCCCC(=O)O

Legend:
[1] = biological target: T1, ferroportin (Homo sapiens, UniProt Q9NP59); test: T47D cell-based ferroportin internalization assay in presence of 0.5% mouse serum albumin (MSA); conditions: T47D cells
T1 sequence (Q9NP59 1-571): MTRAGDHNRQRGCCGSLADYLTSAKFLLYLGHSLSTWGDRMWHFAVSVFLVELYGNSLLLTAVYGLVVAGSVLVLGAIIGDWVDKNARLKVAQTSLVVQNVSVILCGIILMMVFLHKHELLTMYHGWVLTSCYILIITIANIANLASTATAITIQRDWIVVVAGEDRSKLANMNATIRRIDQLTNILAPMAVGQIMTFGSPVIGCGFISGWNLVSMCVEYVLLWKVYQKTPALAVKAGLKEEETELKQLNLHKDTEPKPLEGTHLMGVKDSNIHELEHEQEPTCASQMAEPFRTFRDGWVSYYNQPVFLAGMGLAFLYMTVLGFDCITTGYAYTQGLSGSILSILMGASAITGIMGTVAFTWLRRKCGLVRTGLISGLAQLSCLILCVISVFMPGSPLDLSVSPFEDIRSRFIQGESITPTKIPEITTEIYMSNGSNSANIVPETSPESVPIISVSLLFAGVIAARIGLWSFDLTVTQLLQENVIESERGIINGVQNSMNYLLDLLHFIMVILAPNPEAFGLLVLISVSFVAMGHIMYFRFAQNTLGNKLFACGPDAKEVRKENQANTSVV
Procedure: The potency of the peptides in causing ferroportin internalization was evaluated in a T47D cell-based assay. […] In this internalization assay, the potency of the test peptides was evaluated in presence of serum albumin which is the main protein component in the blood. T47D cells were maintained in RPMI media (containing required amount of fetal bovine serum) and regularly sub-cultured. In preparation for the assay, the cells were seeded in 96-well plates at a density of 80-100 k cells per well in 100 ul volume and allowed to rest overnight. On the next day, test peptides were first prepared in dilution series (10-point series, starting concentration of ˜5 μM, typically 3-4×fold dilution steps), all with 0.5% mouse serum albumin (MSA purified from mouse serum; Sigma, A3139). The test peptide dilution series were allowed to incubate at room temperature for 30 min. Then the media was aspirated from the 96-well cell plate and test peptide dilution series were added. After 1 hr incubation, the media with test peptides was aspirated out and AF647-conjugated detection peptide was added at fixed concentration of 200 nM. The AF647-conjugated detection peptide was previously verified to bind to ferroportin and cause its internalization. The cells were washed again after a 2 hr incubation in preparation for flow cytometry analysis. The Median Fluorescence Intensity (MFI) of the AF647-positive population was measured (after removing dead cells and non-singlets from the analysis). The MFI values were used to generate a dose-response curve and obtain IC50 potencies for the test peptides. The IC50 potencies were calculated by using 4-parameter non-linear fitting function in Graphpad Prism (Table 6A).

[2] = biological target: T2, human ferroportin (SLC40A1) (Homo sapiens, UniProt Q9NP59); test: FPN activity assay: internalization/degradation of ferroportin-GFP in stably transfected HEK293 cells (decrease in GFP fluorescence); format: cell-based; conditions: compound incubated at least 18 hours
T2 sequence (Q9NP59 1-571): T1 sequence (Q9NP59 1-571)
Procedure: Peptide analogues were tested in vitro for induction of internalization of the human ferroportin protein. Following internalization, the ferroporin protein is degraded. The assay used (FPN activity assay) measures a decrease in fluorescence of the receptor. The cDNA encoding the human ferroportin (SLC40A1) was cloned from a cDNA clone from Origene (NM_014585). The DNA encoding the ferroportin was amplified by PCR using primers also encoding terminal restriction sites for subcloning, but without the termination codon. The ferroportin receptor was subcloned into a mammalian GFP expression vector containing a neomycin (G418) resistance marker in such that the reading frame of the ferroportin was fused in frame with the GFP protein. The fidelity of the DNA encoding the protein was confirmed by DNA sequencing. HEK293 cells were used for transfection of the ferroportin-GFP receptor expression plasmid. The cells were grown according to standard protocol in growth medium and transfected with the plasmids using Lipofectamine (manufacturer's protocol, Invitrogen). The cells stably expressing ferroportin-GFP were selected using G418 in the growth medium (in that only cells that have taken up and incorporated the cDNA expression plasmid survive) and sorted several times on a Cytomation MoFloTM cell sorter to obtain the GFP-positive cells (488 nm/530 nm). The cells were propagated and frozen in aliquots. […] Compound was added to desired final concentration for at least 18 hours in the incubator. […] Compound was added to desired final concentration for at least 18 hours but no more than 24 hours in the incubator. […] The “RI” in RI-Mini-Hepcidin refers to Retro Inverse. A retro inverse peptide is a peptide with a reversed sequence in all D amino acids. An example is that […] becomes […]. The EC50 of these reference compounds for ferroportin internalization/degradation was determined according to the FPN activity assay described above. These peptides served as control standards.

| Structure (SMILES) | IC50 [1] | IC50 [2] |
| --- | --- | --- |
| CCCCCCCCCCCCCCCC(=O)NCCCCCC(=O)NCCCC[C@@H]1NC(=O)[C@H](C)NC(=O)[C@@H]2CCCN2C(=O)[C@H](C(c2ccccc2)c2ccccc2)NC(=O)[C@H](Cc2c[nH]cn2)NC(=O)[C@H]([C@@H](C)O)NC(=O)[C@@H](NC(=O)CC(C)C)CCCC=CCCC[C@@H](C(=O)N[C@H](CC(=O)N[C@H](CCCCN)C(N)=O)Cc2ccccc2)NC1=O [Compd 34] | 1 to 10 nM | 1 to 10 nM |
| CCCCCCCCCCCCCCCC(=O)NCCCCCC(=O)NCCCC[C@H](NC(=O)C[C@H](Cc1ccccc1)NC(=O)[C@@H]1CCC=CCC[C@H](NC(=O)CC(C)C)C(=O)N[C@@H]([C@@H](C)O)C(=O)N[C@@H](Cc2c[nH]cn2)C(=O)N[C@@H](C(c2ccccc2)c2ccccc2)C(=O)N2CCC[C@H]2C(=O)N[C@@H](C)C(=O)N(C)[C@@H](CC(C)C)C(=O)N1)C(=O)N[C@H](CCCCN)C(N)=O [Compd 53] (Isovaleryl-[Hag]TH[Dip]PA[NMeL][Hag][β3hF]K([Ahx-Palmitoyl])[dK]-NH2; staple 1-8) | 10 to 100 nM | 100 to 500 nM |
| CCCCCCCCCCCCCCCC(=O)NCCCCCC(=O)NCCCC[C@H](NC(=O)[C@@H]1CCC=CCC[C@H](NC(=O)CC(C)C)C(=O)N[C@@H]([C@@H](C)O)C(=O)N[C@@H](Cc2c[nH]cn2)C(=O)N[C@@H](C(c2ccccc2)c2ccccc2)C(=O)N2CCC[C@H]2C(=O)N[C@@H](C)C(=O)N[C@@H]([C@@H](C)CC)C(=O)N1)C(N)=O [Compd 18] (Isovaleryl-[Hag]TH[Dip]PAI[Hag]K([Ahx-Palmitoyl])-NH2; staple 1-8) | 10 to 100 nM | 100 to 500 nM |
| CCCCCCCCCCCCCCCC(=O)NCCCCCC(=O)NCCCC[C@H](NC(=O)C[C@H](Cc1ccccc1)NC(=O)[C@@H]1CCC=CCC[C@H](NC(=O)CC(C)C)C(=O)N[C@@H]([C@@H](C)O)C(=O)N[C@@H](Cc2c[nH]cn2)C(=O)N[C@@H](C(c2ccccc2)c2ccccc2)C(=O)N2CCC[C@H]2C(=O)N[C@@H](C)C(=O)N[C@@H]([C@@H](C)CC)C(=O)N1)C(=O)N(C)[C@H](CCCCN)C(N)=O [Compd 56] | 10 to 100 nM | 1 to 10 nM |
| CCCCCCCCCCCCCCCC(=O)NCCCCCC(=O)NCCCC[C@H](NC(=O)C[C@H](Cc1ccccc1)NC(=O)[C@@H]1CCC=CCC[C@H](NC(=O)CC(C)C)C(=O)N[C@@H]([C@@H](C)O)C(=O)N[C@@H](Cc2c[nH]cn2)C(=O)N[C@@H](C(c2ccccc2)c2ccccc2)C(=O)N2CCC[C@H]2C(=O)N[C@@H](C)C(=O)N[C@@H]([C@@H](C)CC)C(=O)N1)C(=O)N[C@@H](CC(C)(C)C)C(N)=O [Compd 65] | 1 to 10 nM | 10 to 100 nM |
| CCCCCCCCCCCCCCCC(=O)NCCCCCC(=O)NCCCC[C@H](NC(=O)[C@H](Cc1ccccc1)N(C)C(=O)[C@@H]1CCC=CCC[C@H](NC(=O)CC(C)C)C(=O)N[C@@H]([C@@H](C)O)C(=O)N[C@@H](Cc2c[nH]cn2)C(=O)N[C@@H](C(c2ccccc2)c2ccccc2)C(=O)N2CCC[C@H]2C(=O)N[C@@H](C)C(=O)N[C@@H]([C@@H](C)CC)C(=O)N1)C(=O)N[C@H](CCCCN)C(N)=O [Compd 54] | 100 to 500 nM | 10 to 100 nM |

Now from value to compound:

| IC50 [1] | IC50 [2] | Structure (SMILES) |
| --- | --- | --- |
| 10 to 100 nM | 10 to 100 nM | CCCCCCCCCCCCCCCC(=O)NCCCCCC(=O)NCCCC[C@H](NC(=O)C[C@H](Cc1ccccc1)NC(=O)[C@H]1CCC=CCC[C@H](NC(=O)CC(C)C)C(=O)N[C@@H]([C@@H](C)O)C(=O)N[C@@H](Cc2c[nH]cn2)C(=O)N[C@@H](C(c2ccccc2)c2ccccc2)C(=O)N2CCC[C@H]2C(=O)N[C@@H](C)C(=O)N[C@@H]([C@@H](C)CC)C(=O)N1)C(=O)N[C@H](CCCCN)C(N)=O [Compd 76] |
| 10 to 100 nM | 10 to 100 nM | CCCCCCCCCCCCCCCC(=O)NCCCCCC(=O)NCCCC[C@H](NC(=O)C[C@H](Cc1ccccc1)NC(=O)[C@@H]1CCCC=CCC[C@H](NC(=O)CC(C)C)C(=O)N[C@@H]([C@@H](C)O)C(=O)N[C@@H](Cc2c[nH]cn2)C(=O)N[C@@H](C(c2ccccc2)c2ccccc2)C(=O)N2CCC[C@H]2C(=O)N[C@@H](C)C(=O)N[C@@H]([C@@H](C)CC)C(=O)N1)C(=O)N[C@H](CCCCN)C(N)=O [Compd 31] |
| 100 to 500 nM | 10 to 100 nM | CCCCCCCCCCCCCCCC(=O)NCCCCCC(=O)NCCCC[C@H](NC(=O)C[C@H](Cc1ccccc1)NC(=O)[C@@H]1CCC=CCC[C@@H](NC(=O)CC(C)C)C(=O)N[C@@H]([C@@H](C)O)C(=O)N[C@@H](Cc2c[nH]cn2)C(=O)N[C@@H](C(c2ccccc2)c2ccccc2)C(=O)N2CCC[C@H]2C(=O)N[C@@H](C)C(=O)N[C@@H]([C@@H](C)CC)C(=O)N1)C(=O)N[C@H](CCCCN)C(N)=O [Compd 68] |
| 10 to 100 nM | 10 to 100 nM | CCCCCCCCCCCCCCCC(=O)NCCCCCC(=O)NCCCC[C@H](NC(=O)C[C@H](Cc1ccccc1)NC(=O)[C@H]1CCCC=CCC[C@H](NC(=O)CC(C)C)C(=O)N[C@@H]([C@@H](C)O)C(=O)N[C@@H](Cc2c[nH]cn2)C(=O)N[C@@H](C(c2ccccc2)c2ccccc2)C(=O)N2CCC[C@H]2C(=O)N[C@@H](C)C(=O)N[C@@H]([C@@H](C)CC)C(=O)N1)C(=O)N[C@H](CCCCN)C(N)=O [Compd 75] |
| 10 to 100 nM | 10 to 100 nM | CCCCCCCCCCCCCCCC(=O)NCCCCCC(=O)NCCCC[C@H](NC(=O)C[C@H](Cc1ccccc1)NC(=O)[C@@H]1CCC=CC[C@H](NC(=O)CC(C)C)C(=O)N[C@@H]([C@@H](C)O)C(=O)N[C@@H](Cc2c[nH]cn2)C(=O)N[C@@H](C(c2ccccc2)c2ccccc2)C(=O)N2CCC[C@H]2C(=O)N[C@@H](C)C(=O)N[C@@H]([C@@H](C)CC)C(=O)N1)C(=O)N[C@H](CCCCN)C(N)=O [Compd 27] |
| 100 to 500 nM | 100 to 500 nM | CCCCCCCCCCCCCCCC(=O)NCCCCCC(=O)NCCCC[C@H](NC(=O)C[C@H](Cc1ccccc1)NC(=O)[C@H]1CCCC=CCC[C@@H](NC(=O)CC(C)C)C(=O)N[C@@H]([C@@H](C)O)C(=O)N[C@@H](Cc2c[nH]cn2)C(=O)N[C@@H](C(c2ccccc2)c2ccccc2)C(=O)N2CCC[C@H]2C(=O)N[C@@H](C)C(=O)N[C@@H]([C@@H](C)CC)C(=O)N1)C(=O)N[C@H](CCCCN)C(N)=O [Compd 71] |
| 100 to 500 nM | 100 to 500 nM | CCCCCCCCCCCCCCCC(=O)NCCCCCC(=O)NCCCC[C@H](NC(=O)C[C@H](Cc1ccccc1)NC(=O)[C@@H]1CCC=CCC[C@H](NC(=O)CC(C)C)C(=O)N[C@@H](C)C(=O)N[C@@H](Cc2c[nH]cn2)C(=O)N[C@@H](C(c2ccccc2)c2ccccc2)C(=O)N2CCC[C@H]2C(=O)N[C@@H](C)C(=O)N[C@@H]([C@@H](C)CC)C(=O)N1)C(=O)N[C@H](CCCCN)C(N)=O [Compd 41] (Isovaleryl-[Hag]AH[Dip]PAI[Hag][β3hF]K([Ahx-Palmitoyl])[dK]-NH2; staple 1-8) |
| > 500 nM | 100 to 500 nM | CCCCCCCCCCCCCCCC(=O)NCCCCCC(=O)NCCCC[C@H](NC(=O)C[C@H](Cc1ccccc1)NC(=O)[C@H]1CCCC=CCCC[C@@H](NC(=O)CC(C)C)C(=O)N[C@@H]([C@@H](C)O)C(=O)N[C@@H](Cc2c[nH]cn2)C(=O)N[C@@H](C(c2ccccc2)c2ccccc2)C(=O)N2CCC[C@H]2C(=O)N[C@@H](C)C(=O)N[C@@H]([C@@H](C)CC)C(=O)N1)C(=O)N[C@H](CCCCN)C(N)=O [Compd 73] |
